ChEMBL document CHEMBL1201862, “PubChem BioAssay data set” (2004)
Activity calls are given as the source filed them.

Tests used:
[1] = inhibitors of Vif binding to APOBEC3G peptide, primary screen, biochemical, TR-FRET, GST-Vif 1-94, biotin-A3G peptide, dose response retest (AID 1117319); assay type: functional;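 further: TR-FRET signal of purified GST-Vif binding a biotinylated A3G peptide; inhibitors lower the FRET signal by blocking Vif and A3G binding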
[2] = HEp-2 cell cytotoxicity, dose response, cytotoxicity control for RSV inhibitor project, HTS (AID 2410); assay type: functional; conditions: human respiratory syncytial virus
fMet-Leu-Phe receptor = target: T1, fMet-Leu-Phe receptor (Homo sapiens, UniProt P21462); assay: FPR ligands, dose response (AID 519); assay type: functional
T1 sequence (P21462 whole entry): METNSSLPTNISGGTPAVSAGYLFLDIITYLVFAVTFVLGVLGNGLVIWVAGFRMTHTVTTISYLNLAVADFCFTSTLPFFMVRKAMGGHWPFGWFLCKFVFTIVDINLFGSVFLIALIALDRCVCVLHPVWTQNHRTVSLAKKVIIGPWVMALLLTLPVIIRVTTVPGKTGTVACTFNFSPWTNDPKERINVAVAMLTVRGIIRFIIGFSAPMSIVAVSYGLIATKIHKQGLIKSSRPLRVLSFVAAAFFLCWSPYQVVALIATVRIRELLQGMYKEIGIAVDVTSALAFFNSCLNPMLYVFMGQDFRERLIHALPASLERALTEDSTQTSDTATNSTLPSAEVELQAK

[3] = P. falciparum 3D7-ScDHODH growth inhibitors, dose response, SYBR Green, dry powder samples (AID 1159570); assay type: functional, cell-based;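 further: parasite growth measured after 72 hours of compound exposure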
[4] = P. falciparum Dd2 growth inhibitors, dose response, SYBR Green, cherry-picked samples (AID 1159567); assay type: functional, cell-based
[5] = P. falciparum ATP4 D1247Y mutant growth inhibitors, dose response, NITD609-resistant line, SYBR Green, dry powder (AID 1159571); assay type: functional, cell-based;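 further: parasites synchronized at ring stage by sorbitol before testing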
[6] = P. falciparum Dd2 growth inhibitors, dose response, SYBR Green, dry powder samples (AID 1159566); assay type: functional, cell-based;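 further: potency for growth inhibition with lower SYBR green DNA signal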
[7] = cytotoxicity toward DRD oncogenic fibroblasts, dose response, cell-based, non-viral oncogenic, luminescence (AID 1934); assay type: functional; conditions: Homo sapiens
[8] = target: T2, Replicative DNA helicase DnaB (Mycobacterium tuberculosis, UniProt P9WMR3); assay: DnaB intein splicing inhibitors, dose response, biochemical, cell-free fluorescence (AID 449749); assay type: functional
T2 sequence (P9WMR3 whole entry): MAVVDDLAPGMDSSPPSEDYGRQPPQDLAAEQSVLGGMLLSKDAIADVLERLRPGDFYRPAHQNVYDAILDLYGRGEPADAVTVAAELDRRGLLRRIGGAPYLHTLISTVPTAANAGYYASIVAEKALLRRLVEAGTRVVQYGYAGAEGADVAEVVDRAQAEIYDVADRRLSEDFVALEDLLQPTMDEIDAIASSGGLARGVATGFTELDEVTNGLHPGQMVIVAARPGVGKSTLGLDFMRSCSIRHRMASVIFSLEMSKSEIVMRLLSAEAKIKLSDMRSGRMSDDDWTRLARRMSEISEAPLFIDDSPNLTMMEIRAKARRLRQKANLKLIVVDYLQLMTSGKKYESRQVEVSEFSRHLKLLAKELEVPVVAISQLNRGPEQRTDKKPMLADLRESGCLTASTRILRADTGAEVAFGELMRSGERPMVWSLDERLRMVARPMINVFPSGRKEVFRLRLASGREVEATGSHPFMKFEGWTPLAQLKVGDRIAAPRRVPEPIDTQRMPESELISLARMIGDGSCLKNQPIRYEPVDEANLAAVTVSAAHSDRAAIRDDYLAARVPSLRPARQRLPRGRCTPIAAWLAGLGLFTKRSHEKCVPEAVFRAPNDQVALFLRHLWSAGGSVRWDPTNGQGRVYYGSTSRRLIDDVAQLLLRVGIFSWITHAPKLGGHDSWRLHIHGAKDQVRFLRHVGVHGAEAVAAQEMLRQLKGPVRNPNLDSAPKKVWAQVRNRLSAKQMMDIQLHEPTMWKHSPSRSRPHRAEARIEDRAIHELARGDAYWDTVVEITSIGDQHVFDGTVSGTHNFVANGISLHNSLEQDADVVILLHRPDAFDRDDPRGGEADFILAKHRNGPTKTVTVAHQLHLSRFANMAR

HEK293 [9] = assay: cells; assay type: functional, cell-based; conditions: Homo sapiens
HEK293 [10] = assay: NOD1 signaling inhibitors, primary screen, cell-based, luminescence, uHTS (AID 1578); assay type: functional; conditions: Homo sapiens
BJ [11] = assay: cytotoxicity toward BJ-TERT fibroblasts, dose response, cell-based, RAS-independent, luminescence (AID 1933); assay type: functional; conditions: Homo sapiens
HEK293 [12] = assay: cells; assay type: functional, cell-based; conditions: Homo sapiens; remark: listed apart in the source
BJ [13] = assay: cells; assay type: functional, cell-based; conditions: Homo sapiens
HEK293 [14] = assay: NOD2 signaling inhibitors in MDP-stimulated cells, cell-based, uHTS, luminescence (AID 2001); assay type: functional; conditions: Homo sapiens
BJ [15] = assay: cytotoxicity toward BJ-TERT-LT-ST fibroblasts, dose response, cell-based, RAS-independent, luminescence (AID 1935); assay type: functional; conditions: Homo sapiens;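 further: BJ fibroblasts immortalized with TERT plus LT and ST oncogenes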
Protein RecA = target: T3, Protein RecA (Mycobacterium tuberculosis, UniProt P9WHJ3); assay: Fluorescence Cell-Free Homogeneous Dose Retest to Identify Inhibitors of RecA-Intein Splicing Activity. [Related pubchem assays (depositor defined):AID2097, AID2223, AID489010, AID492950]; assay type: functional
T3 sequence (P9WHJ3 whole entry): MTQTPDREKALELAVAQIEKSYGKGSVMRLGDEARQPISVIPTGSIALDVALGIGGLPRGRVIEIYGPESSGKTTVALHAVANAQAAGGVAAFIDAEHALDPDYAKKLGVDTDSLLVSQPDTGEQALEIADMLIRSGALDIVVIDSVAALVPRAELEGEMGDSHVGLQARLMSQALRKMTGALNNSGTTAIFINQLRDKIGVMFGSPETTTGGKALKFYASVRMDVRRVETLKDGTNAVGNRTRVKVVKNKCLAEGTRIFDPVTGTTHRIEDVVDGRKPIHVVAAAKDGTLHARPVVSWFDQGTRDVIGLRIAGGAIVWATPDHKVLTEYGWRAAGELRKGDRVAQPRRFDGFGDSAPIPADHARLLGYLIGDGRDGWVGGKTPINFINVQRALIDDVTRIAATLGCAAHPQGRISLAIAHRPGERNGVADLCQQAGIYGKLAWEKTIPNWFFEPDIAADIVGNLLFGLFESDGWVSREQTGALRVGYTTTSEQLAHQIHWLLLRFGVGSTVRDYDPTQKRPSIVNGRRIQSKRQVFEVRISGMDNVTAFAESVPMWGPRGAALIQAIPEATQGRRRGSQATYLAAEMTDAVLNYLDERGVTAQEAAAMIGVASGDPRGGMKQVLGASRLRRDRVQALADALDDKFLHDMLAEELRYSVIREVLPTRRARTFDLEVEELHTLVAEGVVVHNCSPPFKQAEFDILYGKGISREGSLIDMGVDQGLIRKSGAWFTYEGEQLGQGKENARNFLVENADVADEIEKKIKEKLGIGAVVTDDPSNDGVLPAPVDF

[16] = target: T4, Histone-lysine N-methyltransferase NSD2 (Homo sapiens, UniProt O96028); assay type: biochemical
T4 sequence (O96028 whole entry): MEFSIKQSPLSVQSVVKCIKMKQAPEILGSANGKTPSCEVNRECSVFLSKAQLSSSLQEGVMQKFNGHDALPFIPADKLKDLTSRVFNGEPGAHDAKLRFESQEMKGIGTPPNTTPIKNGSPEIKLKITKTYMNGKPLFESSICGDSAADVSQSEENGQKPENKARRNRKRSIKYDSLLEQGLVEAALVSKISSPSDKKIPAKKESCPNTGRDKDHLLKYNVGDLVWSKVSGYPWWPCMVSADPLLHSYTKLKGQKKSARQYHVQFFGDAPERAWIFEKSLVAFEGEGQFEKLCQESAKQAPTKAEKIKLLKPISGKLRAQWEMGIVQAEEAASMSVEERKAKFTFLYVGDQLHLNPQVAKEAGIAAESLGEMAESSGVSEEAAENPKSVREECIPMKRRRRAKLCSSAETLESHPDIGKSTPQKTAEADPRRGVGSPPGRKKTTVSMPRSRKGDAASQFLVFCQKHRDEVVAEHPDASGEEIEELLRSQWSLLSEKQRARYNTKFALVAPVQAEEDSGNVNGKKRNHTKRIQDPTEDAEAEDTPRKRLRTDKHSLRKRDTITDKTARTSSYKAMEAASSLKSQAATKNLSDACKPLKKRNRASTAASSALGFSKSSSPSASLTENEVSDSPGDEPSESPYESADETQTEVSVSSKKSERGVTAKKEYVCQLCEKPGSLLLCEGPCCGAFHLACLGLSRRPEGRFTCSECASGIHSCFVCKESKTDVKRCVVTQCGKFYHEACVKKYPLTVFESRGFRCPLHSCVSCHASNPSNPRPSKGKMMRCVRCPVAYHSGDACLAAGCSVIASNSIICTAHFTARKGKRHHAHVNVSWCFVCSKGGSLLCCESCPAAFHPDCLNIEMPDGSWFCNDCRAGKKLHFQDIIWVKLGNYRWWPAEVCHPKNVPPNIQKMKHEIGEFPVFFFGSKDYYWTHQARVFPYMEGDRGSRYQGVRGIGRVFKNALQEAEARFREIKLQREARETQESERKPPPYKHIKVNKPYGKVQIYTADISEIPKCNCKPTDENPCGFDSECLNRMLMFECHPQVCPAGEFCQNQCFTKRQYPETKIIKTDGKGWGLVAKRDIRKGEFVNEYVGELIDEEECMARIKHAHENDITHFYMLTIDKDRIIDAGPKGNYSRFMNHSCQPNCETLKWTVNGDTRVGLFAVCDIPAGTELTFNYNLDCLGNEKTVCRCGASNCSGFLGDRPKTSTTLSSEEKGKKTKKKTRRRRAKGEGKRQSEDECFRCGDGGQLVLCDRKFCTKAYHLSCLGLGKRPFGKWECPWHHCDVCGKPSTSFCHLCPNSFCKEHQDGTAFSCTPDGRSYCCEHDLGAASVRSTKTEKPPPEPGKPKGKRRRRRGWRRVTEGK

Fatty acid synthase [17] = target: T5, Fatty acid synthase (Homo sapiens, UniProt P49327); assay: FAS thioesterase domain inhibitors, dose response, biochemical, endpoint fluorescence intensity, uHTS hits (AID 624327); assay type: functional;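 further: fluorescence from hydrolysis of an O-methyl fluorescein acyl ester substrate by the enzyme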
T5 sequence (P49327 whole entry, the tested form may be a part): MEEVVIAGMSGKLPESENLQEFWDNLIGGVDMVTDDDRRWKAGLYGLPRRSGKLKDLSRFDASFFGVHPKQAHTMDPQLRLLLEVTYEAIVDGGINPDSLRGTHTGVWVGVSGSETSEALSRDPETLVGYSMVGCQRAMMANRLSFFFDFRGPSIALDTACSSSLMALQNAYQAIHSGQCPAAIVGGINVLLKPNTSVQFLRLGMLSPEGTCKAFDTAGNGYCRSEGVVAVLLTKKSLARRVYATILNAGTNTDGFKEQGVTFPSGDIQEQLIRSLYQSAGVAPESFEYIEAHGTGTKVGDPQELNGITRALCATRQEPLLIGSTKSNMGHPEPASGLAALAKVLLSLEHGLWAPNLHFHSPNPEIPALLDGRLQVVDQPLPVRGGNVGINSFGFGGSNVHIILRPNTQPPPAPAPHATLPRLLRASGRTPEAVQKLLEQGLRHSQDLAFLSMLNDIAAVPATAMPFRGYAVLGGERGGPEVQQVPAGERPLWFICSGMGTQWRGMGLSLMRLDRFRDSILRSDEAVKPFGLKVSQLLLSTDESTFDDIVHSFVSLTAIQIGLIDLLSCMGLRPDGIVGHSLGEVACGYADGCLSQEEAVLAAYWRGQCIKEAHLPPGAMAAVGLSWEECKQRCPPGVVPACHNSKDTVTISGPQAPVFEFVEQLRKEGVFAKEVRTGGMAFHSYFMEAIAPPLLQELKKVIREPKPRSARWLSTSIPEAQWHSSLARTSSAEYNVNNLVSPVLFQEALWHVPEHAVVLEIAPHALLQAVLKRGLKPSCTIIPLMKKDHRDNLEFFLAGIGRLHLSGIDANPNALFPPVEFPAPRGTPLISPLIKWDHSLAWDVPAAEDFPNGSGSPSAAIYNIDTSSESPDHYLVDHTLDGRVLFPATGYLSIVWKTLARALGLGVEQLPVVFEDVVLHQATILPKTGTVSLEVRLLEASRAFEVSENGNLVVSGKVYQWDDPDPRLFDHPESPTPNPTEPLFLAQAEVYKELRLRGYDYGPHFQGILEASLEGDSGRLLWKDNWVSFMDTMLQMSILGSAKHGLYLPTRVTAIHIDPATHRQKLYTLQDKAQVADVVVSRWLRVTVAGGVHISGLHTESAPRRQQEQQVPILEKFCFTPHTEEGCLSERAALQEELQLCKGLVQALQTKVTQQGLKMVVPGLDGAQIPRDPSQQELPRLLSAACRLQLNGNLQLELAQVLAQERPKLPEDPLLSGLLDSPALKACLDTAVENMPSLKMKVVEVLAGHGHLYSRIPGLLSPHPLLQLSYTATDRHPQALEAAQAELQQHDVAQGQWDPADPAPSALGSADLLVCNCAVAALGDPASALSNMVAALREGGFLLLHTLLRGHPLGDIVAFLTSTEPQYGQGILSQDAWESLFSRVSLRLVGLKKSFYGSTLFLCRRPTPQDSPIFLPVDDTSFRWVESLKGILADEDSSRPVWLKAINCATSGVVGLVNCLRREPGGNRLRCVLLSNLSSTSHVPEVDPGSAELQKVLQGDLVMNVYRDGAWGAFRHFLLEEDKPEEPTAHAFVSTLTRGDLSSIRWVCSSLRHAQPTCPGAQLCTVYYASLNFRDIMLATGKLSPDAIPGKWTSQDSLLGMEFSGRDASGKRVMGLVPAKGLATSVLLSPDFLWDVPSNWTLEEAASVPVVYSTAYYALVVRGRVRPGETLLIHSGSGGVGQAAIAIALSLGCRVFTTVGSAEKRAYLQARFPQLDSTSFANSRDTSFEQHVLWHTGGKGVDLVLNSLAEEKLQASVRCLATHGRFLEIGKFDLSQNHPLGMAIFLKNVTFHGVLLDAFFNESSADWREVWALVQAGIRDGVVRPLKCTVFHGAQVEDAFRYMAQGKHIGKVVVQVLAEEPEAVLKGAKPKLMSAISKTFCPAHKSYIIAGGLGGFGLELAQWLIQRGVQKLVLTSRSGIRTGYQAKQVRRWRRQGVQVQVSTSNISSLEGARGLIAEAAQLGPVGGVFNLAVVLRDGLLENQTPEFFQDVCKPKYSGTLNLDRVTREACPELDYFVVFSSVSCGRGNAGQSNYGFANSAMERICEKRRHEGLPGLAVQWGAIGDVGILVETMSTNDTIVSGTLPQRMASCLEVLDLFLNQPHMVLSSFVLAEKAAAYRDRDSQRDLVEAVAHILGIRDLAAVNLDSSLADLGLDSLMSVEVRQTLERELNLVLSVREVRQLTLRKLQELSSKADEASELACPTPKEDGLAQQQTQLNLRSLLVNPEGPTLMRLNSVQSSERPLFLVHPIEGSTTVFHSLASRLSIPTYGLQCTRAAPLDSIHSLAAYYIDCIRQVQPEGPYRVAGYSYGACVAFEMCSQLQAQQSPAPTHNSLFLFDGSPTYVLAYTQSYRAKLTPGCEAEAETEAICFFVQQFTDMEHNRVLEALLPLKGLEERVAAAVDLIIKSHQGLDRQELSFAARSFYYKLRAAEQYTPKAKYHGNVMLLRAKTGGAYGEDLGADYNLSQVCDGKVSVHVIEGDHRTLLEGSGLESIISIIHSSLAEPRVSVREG

[18] = target: T6, Tyrosyl-DNA phosphodiesterase 2 (Homo sapiens, UniProt O95551); assay: human TDP2 enzyme inhibitors, dose response, biochemical, epi absorbance, IC50 (AID 743297)
T6 sequence (O95551 whole entry): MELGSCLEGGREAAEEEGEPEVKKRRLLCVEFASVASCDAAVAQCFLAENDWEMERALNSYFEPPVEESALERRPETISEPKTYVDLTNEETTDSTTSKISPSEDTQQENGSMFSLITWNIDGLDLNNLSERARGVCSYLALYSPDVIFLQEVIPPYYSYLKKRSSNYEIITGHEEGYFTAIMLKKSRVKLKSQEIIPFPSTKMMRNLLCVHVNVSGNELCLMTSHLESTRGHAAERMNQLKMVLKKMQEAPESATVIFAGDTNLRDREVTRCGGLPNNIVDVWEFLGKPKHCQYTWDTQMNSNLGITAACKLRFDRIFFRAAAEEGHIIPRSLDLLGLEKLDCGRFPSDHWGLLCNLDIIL

[19] = target: Dual specificity tyrosine-phosphorylation-regulated kinase 1A (Rattus norvegicus, UniProt Q63470); assay type: biochemical, Homo sapiens
[20] = target: Heat shock protein HSP 90-alpha (Homo sapiens, UniProt P07900); assay type: functional, organism-based
Paired box protein Pax-8 = Paired box protein Pax-8 (Homo sapiens, UniProt Q06710); assay: inhibitors of PAX8-driven TPO luciferase reporter, dose response, RMG-I cells, cherry-pick (AID 687027); assay type: functional, cell-based;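 further: luciferase reporter driven by Pax8 target thyroperoxidase promoter measured by SteadyGlo luminescence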
Sequence of Paired box protein Pax-8 (Q06710 whole entry, the tested form may be a part): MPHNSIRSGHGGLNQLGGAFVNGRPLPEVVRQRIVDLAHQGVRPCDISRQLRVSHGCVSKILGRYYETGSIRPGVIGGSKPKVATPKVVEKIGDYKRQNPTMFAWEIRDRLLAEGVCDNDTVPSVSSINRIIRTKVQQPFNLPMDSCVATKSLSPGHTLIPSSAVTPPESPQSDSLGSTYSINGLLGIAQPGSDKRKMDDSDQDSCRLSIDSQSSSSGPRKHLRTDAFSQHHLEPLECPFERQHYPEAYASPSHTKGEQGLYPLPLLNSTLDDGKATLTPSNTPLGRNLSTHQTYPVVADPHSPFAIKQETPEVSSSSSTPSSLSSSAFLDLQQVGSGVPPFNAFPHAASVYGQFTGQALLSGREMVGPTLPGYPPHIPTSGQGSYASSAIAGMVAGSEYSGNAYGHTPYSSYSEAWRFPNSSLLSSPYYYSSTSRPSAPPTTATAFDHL

Fatty acid synthase [21] = target: T5, Fatty acid synthase; assay: FAS thioesterase domain inhibitors, dose response, biochemical, kinetic fluorescence intensity (AID 624326); assay type: functional;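 further: rate of fluorescence rise from hydrolysis of a fluorogenic O-methyl fluorescein ester substrate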

CCN(CC(=O)Nc1c(F)cccc1F)C(=O)CSC(=S)N1CCCC1
IC50 [1]: > 100 µM (active)

COc1ccc(-c2ccc3c(N)c(C(=O)NC(C)C)sc3n2)cc1OC
IC50 (cells): 35.9 µM (active) | CC50 [2]: > 50 µM (active)

COC(=O)N/N=C/c1ccc(-c2cccc(Cl)c2)o1
IC50 (cells): 24.9 µM (active) | CC50 [2]: 28.3 µM (active)

Cc1nc2c(C#N)cnn2c(O)c1Cc1ccccc1
Ki (fMet-Leu-Phe receptor): 27.4 µM (inactive)

O=S(=O)(c1ccc2c(c1)OCCO2)N1CCC(c2nc(O)c3nnn(Cc4c(F)cccc4Cl)c3n2)CC1
IC50 (cells): 9.34 µM (active) | CC50 [2]: 34.2 µM (active)

COc1ccc(C#Cc2ccc3c(c2)O[C@H](CN(C)S(=O)(=O)c2ccccc2F)[C@@H](C)CN([C@H](C)CO)S3(=O)=O)cc1
AC50 [3]: 1.38 µM (active) | AC50 [4]: 1.7 µM (active) | AC50 [5]: 1.21 µM (active) | AC50 [6]: 1.12 µM (active)

CCOC(=O)CSc1nnc(CNC(=O)c2cc(OCC)c(OCC)c(OCC)c2)n1C
Ki (fMet-Leu-Phe receptor): > 66.7 µM (inactive)

COc1ccccc1-c1cc2nc(C)cc(C)n2n1
IC50 (cells): 18.8 µM (active) | CC50 [2]: 22.5 µM (active)

C/C(=C\C(=O)c1ccc(Br)cc1)N1CCCCC1
IC50 [1]: > 100 µM (active)

CCc1nc(N2CCN(C(=O)CCl)CC2)c2c3c(sc2n1)CC(C)CC3 (stereo unspecified)
EC50 [7]: 5.84 µM (active) | AC50 [8]: 1.92 µM (active) | IC50 (HEK293 [9]): > 20 µM (inactive) | EC50 (HEK293 [10]): > 20 µM (inactive) | EC50 (BJ [11]): 1.62 µM (active) | IC50 (HEK293 [12]): 8.57 µM (active) | EC50 (BJ [13]): 9.44 µM (inconclusive) | IC50 (HEK293 [14]): 12 µM (inactive) | EC50 (BJ [15]): 5.72 µM (inconclusive) | EC50 (Protein RecA): 0.729 µM (active)

Cc1ccc(C(=O)C2=C(O)C(=O)N(c3cc(C)on3)C2c2cccc(Br)c2)cc1 (stereo unspecified)
Ki (fMet-Leu-Phe receptor): > 66.7 µM (inactive)

CC1Cc2cc(C(=O)C3=C(O)C(=O)N(CCN4CCOCC4)C3c3ccccc3F)ccc2O1 (stereo unspecified)
Ki (fMet-Leu-Phe receptor): > 66.7 µM (inactive)

Cc1ccc(-n2nnnc2SCn2nnc3ccccc3c2=O)cc1
IC50 [1]: > 100 µM (active)

Cc1ccc2c(c1C)-c1c(ccc(C)c1C)C(=O)C2=O
AC50 [16]: 0.531 µM (active) | IC50 (Fatty acid synthase [17]): 7.89 µM (active) | IC50 [18]: 8.67 µM (active) | AC50 [19]: 3.16 µM (active) | AC50 [20]: 2.79 µM (active) | AC50 (Paired box protein Pax-8): 3.67 µM (active) | IC50 (Fatty acid synthase [21]): 5.23 µM (active)
